Format in all cases: cell-based
The subject of data set [1] is A549 (human lung carcinoma) cell line. As to the kind of experiment: In vitro cytotoxic activity (MTT assay) against A549 cells. Particulars: for IC50: MTT assay, cultures incubated 24 h with compound, ± standard deviation, three independent experiments; for in vitro cytotoxicity against A549 compared in words with cisplatin / carboplatin: A549 cells, comparison of IC50 values. As to the method: (§1) The cis-[Pt(NH3)2(thione)2].2NO3 complexes were evaluated for their in vitro cytotoxic activity against A549 (human lung cancer), MCF-7 (human breast cancer) and HTC15 (human colon cancer) cell lines. The cells were seeded at 4×10^3 cells/well in 100 μL DMEM containing 10% FBS in 96-wells tissue culture plate and incubated for 72 h at 37° C., 5% CO2 in the air and 90% relative humidity in the CO2 incubator. […] The medium of wells was discarded and 100 μL DMEM containing MTT (3-(4,5-Dimethylthiazol-2-yl)-2,5-diphenyltetrazolium Bromide) (5 mg/mL) was added to the wells and incubated in a CO2 incubator at 37° C. in dark for 4 h. After incubation, purple colored formazan (artificial chromogenic dye, a product of the reduction of water insoluble tetrazolium salts e.g., MMT by dehydrogenases and reductases) in the cells is produced and appeared as dark crystals in the bottom of the wells. The resultant crystals were solubilized by adding 100 μL of DMSO in each well. The solution was thoroughly mixed to dissolve the formazan crystals, producing a purple solution. The absorbance of the 96-wells plate was taken at 570 nm with Labsystems Multiskan EX-Enzyme-linked immunosorbent assay (EX-ELISA) reader against a reagent blank. The IC50 values were calculated from three independent experiments by generating an equation of logarithmic trendline of percentage cell viability against concentration compounds in Microsoft excel.
The MTT assay was performed in three independent experiments, each in triplicate. The cancer cell lines used are A549 (human lung cancer), MCF-7 (human breast cancer) and HTC15 (human colon cancer) cell lines.
(Formazan colour is commonly taken as a measure of viable cells.)

Data set [2] has as its system MCF7 (human breast carcinoma) cell line. As to the kind of experiment: In vitro cytotoxic activity (MTT assay) against MCF7 cells. The following applies: for IC50: MTT assay, cultures incubated 24 h with compound, ± standard deviation, three independent experiments; for antiproliferative potency against MCF7 in words, compared with cisplatin / carboplatin: MCF7 cells, comparison of IC50 values. As to the method: as §1
(§2) The IC50 values were obtained from curves between the complexes concentration and viability percentage of the cells, and are listed, in Table 3.
(§3) The experimental results are presented as the micro-mole concentration of 50%/0 cell growth inhibition (IC50) of each drug. The MTT assay was performed in three independent experiments, each in triplicate. The cancer cell lines used are A549 (human lung cancer), MCF-7 (human breast cancer) and HTC15 (human colon cancer) cell lines.

Data set [3] relates to HCT15 (human colon adenocarcinoma) cell line. The data set is described as follows: In vitro cytotoxic activity (MTT assay) against HCT15 cells. Particulars: for IC50: MTT assay, cultures incubated 24 h with compound, ± standard deviation, three independent experiments; for cytotoxicity against HCT15 compared in words with cisplatin / carboplatin: HCT15 cells, comparison of IC50 values. As to the method:
as §1, §2, §3

The term IC50 denotes the concentration at which inhibition is half-maximal.

Consider `N.N.[Cl][Pt][Cl]` [Cisplatin, cis-diaminedichloridoplatinum(II), reference compound], for which the IC50 in data set [1] was determined as 42 ± 2 µM; in data set [2], 23 ± 3 µM; in data set [3], 32 ± 2 µM.
Regarding `CN1CCNC1=[S+][Pt-2]([NH3+])([NH3+])[S+]=C1NCCN1C.O=[N+]([O-])[O-].O=[N+]([O-])[O-]` [Compound 2, cis-[Pt(NH3)2(MeImt)2].2NO3], the results for the IC50 in data set [1], in data set [2] and in data set [3] were 85 ± 1 µM, 82 ± 1 µM and 75 ± 2 µM, respectively.
Regarding `CC(C)N1CCN(C(C)C)C1=[S+][Pt-2]([NH3+])([NH3+])[S+]=C1N(C(C)C)CCN1C(C)C.O=[N+]([O-])[O-].O=[N+]([O-])[O-]` [Compound 7, cis-[Pt(NH3)2(iPr2Imt)2].2NO3], in data set [1], the “in vitro cytotoxicity against A549 compared in words with cisplatin / carboplatin” value is listed as “comparable to cisplatin” and the IC50 is 50 µM. The IC50 in data set [2] stood at 78 ± 2 µM. In data set [3], the “cytotoxicity against HCT15 compared in words with cisplatin / carboplatin” value is listed as “lower IC50 values” and the IC50 is 52 ± 1 µM.
For `CCN1CCN(CC)C1=[S+][Pt-2]([NH3+])([NH3+])[S+]=C1N(CC)CCN1CC.O=[N+]([O-])[O-].O=[N+]([O-])[O-]` [Compound 4, cis-[Pt(NH3)2(Et2Imt)2].2NO3], the figures for the IC50 in data set [1], in data set [2] and in data set [3] were 108 ± 2 µM, 97 ± 3 µM and 97 ± 3 µM, respectively.
Regarding `N.N.O=C([O-])C1(C(=O)[O-])CCC1.[Pt+2]` [Carboplatin, reference compound], the IC50 in data set [1] amounted to 70 ± 2 µM; in data set [2], 63 ± 2 µM; in data set [3], 53 ± 2 µM. Moreover, the “antiproliferative potency against MCF7 in words, compared with cisplatin / carboplatin” value in data set [2] is listed as “poor antiproliferative potency”.
Consider `CCCN1CCNC1=[S+][Pt-2]([NH3+])([NH3+])[S+]=C1NCCN1CCC.O=[N+]([O-])[O-].O=[N+]([O-])[O-]` [Compound 5, cis-[Pt(NH3)2(PrImt)2].2NO3], for which, in data set [1], the “in vitro cytotoxicity against A549 compared in words with cisplatin / carboplatin” value was “nearly same as that of carboplatin” and the IC50 was determined as 72 ± 2 µM. For the same molecule, the IC50 in data set [2] worked out at 74 ± 2 µM. For the same molecule, in data set [3], the “cytotoxicity against HCT15 compared in words with cisplatin / carboplatin” value is given as “lower IC50 values” and the IC50 amounted to 51 ± 2 µM.
`CCN1CCCNC1=[S+][Pt-2]([NH3+])([NH3+])[S+]=C1NCCCN1CC.O=[N+]([O-])[O-].O=[N+]([O-])[O-]` [Compound 9, cis-[Pt(NH3)2(EtDiaz)2].2NO3]: the “in vitro cytotoxicity against A549 compared in words with cisplatin / carboplatin” value in data set [1] is listed as “nearly same as that of carboplatin”. Besides, the IC50 was found to be 73 ± 1 µM in data set [1], 103 ± 3 µM in data set [2] and 90 ± 2 µM in data set [3].
Turning to `O=[N+]([O-])[O-].O=[N+]([O-])[O-].[NH3+][Pt-2]([NH3+])([S+]=C1NCCN1)[S+]=C1NCCN1` [Compound 1, cis-[Pt(NH3)2(Imt)2].2NO3], in data set [1], the “in vitro cytotoxicity against A549 compared in words with cisplatin / carboplatin” value is on record as “comparable to cisplatin”. Also, the IC50 in data set [1] was 53 µM; in data set [2] it was 101 ± 2 µM; in data set [3], 82 ± 1 µM.
For `CC(C)N1CCNC1=[S+][Pt-2]([NH3+])([NH3+])[S+]=C1NCCN1C(C)C.O=[N+]([O-])[O-].O=[N+]([O-])[O-]` [Compound 6, cis-[Pt(NH3)2(iPrImt)2].2NO3], in data set [1], the “in vitro cytotoxicity against A549 compared in words with cisplatin / carboplatin” value is on record as “comparable to cisplatin” and the IC50 is 55 µM. Further, in data set [2], the IC50 came out at 81 ± 3 µM. Besides, in data set [3], the “cytotoxicity against HCT15 compared in words with cisplatin / carboplatin” value is “lower IC50 values” and the IC50 was found to be 48 ± 1 µM.
As to `O=[N+]([O-])[O-].O=[N+]([O-])[O-].[NH3+][Pt-2]([NH3+])([S+]=C1NCCCCN1)[S+]=C1NCCCCN1` [Compound 10, cis-[Pt(NH3)2(Diap)2].2NO3], in data set [1], the “in vitro cytotoxicity against A549 compared in words with cisplatin / carboplatin” value is listed as “comparable to cisplatin”. In addition, the IC50 came to 52 µM in data set [1], 71 ± 1 µM in data set [2] and 41 ± 1 µM in data set [3]. The “cytotoxicity against HCT15 compared in words with cisplatin / carboplatin” value in data set [3] is on record as “lower IC50 values”.
For `O=[N+]([O-])[O-].O=[N+]([O-])[O-].[NH3+][Pt-2]([NH3+])([S+]=C1NCCCN1)[S+]=C1NCCCN1` [Compound 8, cis-[Pt(NH3)2(Diaz)2].2NO3], the “in vitro cytotoxicity against A549 compared in words with cisplatin / carboplatin” value in data set [1] is listed as “nearly same as that of carboplatin”. In addition, the IC50 amounted to 75 ± 2 µM in data set [1], 90 ± 2 µM in data set [2] and 76 ± 1 µM in data set [3].
As to `CN1CCN(C)C1=[S+][Pt-2]([NH3+])([NH3+])[S+]=C1N(C)CCN1C.O=[N+]([O-])[O-].O=[N+]([O-])[O-]` [Compound 3, cis-[Pt(NH3)2(Me2Imt)2].2NO3], the results for the IC50 in data set [1], in data set [2] and in data set [3] were 68 ± 1 µM, 58 µM and 54 ± 1 µM, respectively. In data set [2], the “antiproliferative potency against MCF7 in words, compared with cisplatin / carboplatin” value is “greater cytotoxic effect than carboplatin”. Also, the “cytotoxicity against HCT15 compared in words with cisplatin / carboplatin” value in data set [3] is given as “nearly same value as carboplatin”.

(Values after patent US10357473B2, “Method for treating a prolifitive disorder with a cis-diamine platinum complex” (KING FAHD UNIVERSITY OF PETROLEUM AND MINERALS, priority 2017, dated 2019).)
